# Measurements published in PubChem BioAssay (NCI).
# Where “and” joins values, the source holds several entries; their conditions need not be identical. Identical values can stand only once.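 1) Cells in 96-well plates. 2) Compound, 48 h, 5 concentrations. 3) Linear interpolation between surrounding doses. 4) Unreached endpoint = highest concentration. GI50 marks 50% less growth. TGI: total growth inhibition.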
# Key:
# Assay in all cases: NCI tumour cell line growth inhibition, 48 h
# 786-0 renal = system: 786-0 renal
# A498 renal = system: A498 renal
# A549 NSCLC = system: A549 NSCLC
# BT-549 breast = system: BT-549 breast
# CCRF-CEM leukemia = system: CCRF-CEM leukemia
# COLO 205 colon = system: COLO 205 colon
# DLD-1 colon = system: DLD-1 colon
# DMS 114 small cell lung = system: DMS 114 small cell lung
# DMS 273 small cell lung = system: DMS 273 small cell lung
# EKVX NSCLC = system: EKVX NSCLC
# HCC-2998 colon = system: HCC-2998 colon
# HCT-116 colon = system: HCT-116 colon
# HCT-15 colon = system: HCT-15 colon
# HL-60(TB) leukemia = system: HL-60(TB) leukemia
# HOP-18 NSCLC = system: HOP-18 NSCLC
# HS 578T breast = system: HS 578T breast
# HT29 colon = system: HT29 colon
# IGROV1 ovarian = system: IGROV1 ovarian
# K-562 leukemia = system: K-562 leukemia
# KM12 colon = system: KM12 colon
# KM20L2 colon = system: KM20L2 colon
# M14 melanoma = system: M14 melanoma
# M19-MEL melanoma = system: M19-MEL melanoma
# MALME-3M melanoma = system: MALME-3M melanoma
# MCF7 breast = system: MCF7 breast
# MDA-MB-231 breast = system: MDA-MB-231 breast
# MDA-MB-435 = system: MDA-MB-435
# MDA-N = system: MDA-N
# NCI-H23 lung = system: NCI-H23 lung
# NCI-H460 lung = system: NCI-H460 lung
# NCI-H522 lung = system: NCI-H522 lung
# OVCAR-5 ovarian = system: OVCAR-5 ovarian
# P388 leukemia = system: P388 leukemia
# P388/ADR leukemia = system: P388/ADR leukemia
# RPMI-8226 leukemia = system: RPMI-8226 leukemia
# RXF 393 renal = system: RXF 393 renal
# SF-268 CNS = system: SF-268 CNS
# SF-539 CNS = system: SF-539 CNS
# SK-MEL-28 melanoma = system: SK-MEL-28 melanoma
# SK-MEL-5 melanoma = system: SK-MEL-5 melanoma
# SN12K1 renal = system: SN12K1 renal
# SNB-19 CNS = system: SNB-19 CNS
# SNB-78 CNS = system: SNB-78 CNS
# SR leukemia = system: SR leukemia
# SW-620 colon = system: SW-620 colon
# T-47D breast = system: T-47D breast
# U251 CNS = system: U251 CNS
# UACC-257 melanoma = system: UACC-257 melanoma
# UACC-62 melanoma = system: UACC-62 melanoma
# XF 498 CNS = system: XF 498 CNS
structure (smiles),measurement,setting,value
CN1N=C(N)c2cn(C3OC(COP(=O)(O)O)C(O)C3O)c3ncnc1c23 (configuration not stated),TGI,786-0 renal,500 µM and 1650 µM and > 3510 µM
same,GI50,A498 renal,68.5 µM and 40.6 µM
same,TGI,A498 renal,391 µM and 1650 µM and 713 µM
same,TGI,A549 NSCLC,500 µM and 1650 µM and > 4780 µM
same,GI50,BT-549 breast,20.1 µM and 4.86 µM
same,TGI,BT-549 breast,135 µM and 626 µM and 114 µM
same,TGI,CCRF-CEM leukemia,500 µM and 1650 µM and > 5000 µM
same,TGI,COLO 205 colon,499 µM and > 1650 µM and 2170 µM
same,TGI,DLD-1 colon,617 µM
same,TGI,DMS 114 small cell lung,> 4300 µM
same,TGI,DMS 273 small cell lung,> 5000 µM
same,TGI,EKVX NSCLC,500 µM and 1650 µM and 360 µM
same,TGI,HCC-2998 colon,500 µM and 1650 µM and > 4830 µM
same,TGI,HCT-116 colon,468 µM and 1650 µM and > 4540 µM
same,TGI,HCT-15 colon,500 µM and 1650 µM and 2630 µM
same,TGI,HL-60(TB) leukemia,114 µM and 123 µM and 116 µM
same,TGI,HOP-18 NSCLC,333 µM
same,TGI,HS 578T breast,232 µM and 341 µM and 144 µM
same,TGI,HT29 colon,500 µM and 1650 µM and > 4630 µM
same,TGI,IGROV1 ovarian,500 µM and 1650 µM and 918 µM
same,TGI,K-562 leukemia,500 µM and > 1650 µM and > 5000 µM
same,TGI,KM12 colon,500 µM and > 1650 µM and > 5000 µM
same,TGI,KM20L2 colon,> 4370 µM
same,TGI,M14 melanoma,500 µM and 1650 µM and 1670 µM
same,TGI,M19-MEL melanoma,> 4220 µM
same,TGI,MALME-3M melanoma,305 µM and 1650 µM and 2090 µM
same,TGI,MCF7 breast,500 µM and 1650 µM and 3650 µM
same,TGI,MDA-MB-231 breast,163 µM and 259 µM
same,TGI,MDA-MB-435,363 µM and 671 µM
same,GI50,MDA-N,25.2 µM
same,TGI,MDA-N,390 µM and > 1530 µM
same,TGI,NCI-H23 lung,500 µM and 1650 µM and 4180 µM
same,TGI,NCI-H460 lung,500 µM and > 1650 µM and 3460 µM
same,TGI,NCI-H522 lung,500 µM and > 1650 µM and > 5000 µM
same,TGI,OVCAR-5 ovarian,207 µM and 1650 µM and 475 µM
same,TGI,P388 leukemia,7.87 µM
same,TGI,P388/ADR leukemia,2.94 µM
same,GI50,RPMI-8226 leukemia,143 µM
same,TGI,RPMI-8226 leukemia,500 µM and > 4750 µM
same,GI50,RXF 393 renal,41.9 µM
same,TGI,RXF 393 renal,236 µM and 462 µM and 460 µM
same,TGI,SF-268 CNS,500 µM and 1650 µM and > 4850 µM
same,TGI,SF-539 CNS,162 µM and 807 µM and 208 µM
same,GI50,SK-MEL-28 melanoma,118 µM and 312 µM
same,TGI,SK-MEL-28 melanoma,500 µM and 1650 µM and 2420 µM
same,TGI,SK-MEL-5 melanoma,500 µM and > 1650 µM and > 4390 µM
same,TGI,SN12K1 renal,> 5000 µM
same,TGI,SNB-19 CNS,455 µM and 1650 µM and 3170 µM
same,TGI,SNB-78 CNS,2910 µM
same,TGI,SR leukemia,500 µM and > 1650 µM and > 5000 µM
same,TGI,SW-620 colon,500 µM and > 1650 µM and > 4130 µM
same,TGI,T-47D breast,327 µM and 1650 µM and 269 µM
same,TGI,U251 CNS,500 µM and 1650 µM and > 5000 µM
same,TGI,UACC-257 melanoma,500 µM and 1650 µM and 4660 µM
same,GI50,UACC-62 melanoma,22.6 µM and 96.1 µM
same,TGI,UACC-62 melanoma,290 µM and 1650 µM and 1880 µM
same,TGI,XF 498 CNS,44.9 µM
